Laboratory results taken from publication PMC1838960, “Inhibition of Hippocampal Matrix Metalloproteinase-3 and -9 Disrupts Spatial Memory” (Neural Plasticity, 2006).

Columns and labels:
[1] = target: T1, MMP-3 (stromelysin-1) catalytic domain (Homo sapiens, UniProt P08254); test: MMP fluorescence enzyme assay, MMP-3 catalytic domain; format: biochemical
T1 construct: Catalytic domains for MMP-3 and -9 were used; purchased Biomol International LP
Procedure: (§1) Enzyme assays for MMP activity were conducted in black 96-well plates according to manufacturer instructions (Biomol International LP, Plymouth Meeting, Pa). Catalytic domains for MMP-3 and -9 were used with the fluorogenic peptide substrate: Mca-Pro-Leu-Gly-Leu-Dpa-Ala-Arg-NH2. Solutions were preincubated with FN-439 for 30 minutes at 37°C. Subsequently, the fluorogenic peptide substrate was added and fluorescence was measured at 10-minute intervals for one hour using a Perkin-Elmer plate reader. Slopes were derived from the linear portion of the curves and background slopes were subtracted from all samples. The slopes were normalized as percent of enzyme activity compared with activity in the absence of inhibitor. IC50 values were extrapolated using quadratic and sigmoidal curve fit programs for each sample and were averaged.

[2] = target: T2, MMP-9 (gelatinase B) catalytic domain (Homo sapiens, UniProt P14780); test: MMP fluorescence enzyme assay, MMP-9 catalytic domain; format: biochemical
T2 construct: Catalytic domains for MMP-3 and -9 were used; purchased Biomol International LP
T2 sequence (P14780 107-457 limits assumed): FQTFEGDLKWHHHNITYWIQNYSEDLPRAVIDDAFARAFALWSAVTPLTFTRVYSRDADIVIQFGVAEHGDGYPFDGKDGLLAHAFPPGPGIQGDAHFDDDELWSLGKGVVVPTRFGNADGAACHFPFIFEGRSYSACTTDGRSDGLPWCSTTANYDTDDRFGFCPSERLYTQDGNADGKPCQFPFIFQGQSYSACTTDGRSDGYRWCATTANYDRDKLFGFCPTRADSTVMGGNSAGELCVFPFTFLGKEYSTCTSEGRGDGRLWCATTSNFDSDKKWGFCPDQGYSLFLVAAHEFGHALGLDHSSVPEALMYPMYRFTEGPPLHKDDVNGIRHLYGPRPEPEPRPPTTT
Procedure: as §1

[3] = test system: MMP-2 and MMP-9 gelatinase activity in the hippocampus; test: In situ zymography of hippocampal sections (DQ-gelatin-FITC); set-up: species or system rat; conditions: 14.4 mM, 3 h preincubation at 37°C plus 1 h with DQ-gelatin, vs PBS
Procedure: (§2) Naïve rats were euthanized by decapitation, their brains were sectioned (10 μm) using a cryostat and the sections were mounted on slides and stored at −80°C for no longer than a week. These sections were warmed to room temperature for 10 minutes and preincubated for 3 hours in either PBS (pH 7.4 control) or 14.4 mM FN-439 in PBS at 37°C. The control slides were then incubated for an additional hour with DQ-gelatin-FITC (DQ, Molecular Probes, Eugene, Ore) and the treated slides were incubated with DQ containing 14.4 mM FN-439 for 1 additional hour. Following incubation, the slides were washed in PBS, fixed with 4% paraformaldehyde in PBS, and cover slipped using prolong antifade mounting medium containing DAPI (Molecular Probes, Eugene, Ore). The slides were examined using a Zeiss Axioplan 2I microscope using epifluorescent illumination and appropriate filter sets for visualizing DQ (FITC) and DAPI (UV) fluorescence. Images were captured at 100–200X magnification using a Kodak DC290 digital camera and Photoshop software (Adobe Systems Inc, San Jose, Calif).

[4] = test system: cell nuclei of hippocampal sections; test: Cell nuclei (DAPI) appearance in hippocampal sections, cellular toxicity; set-up: species or system rat; conditions: 14.4 mM; vs PBS
Procedure: as §2

[5] = Morris water maze task, acquisition training; format: in vivo, male Sprague-Dawley rats; conditions: for positive thigmotaxis (ratio of time near the wall to total trial time), day 8 / day 8 latency to find the platform / day 8 distance swum to find the platform: 70 μg/day cumulative; for day 8 latency to find the platform / day 8 distance swum to find the platform: mean ± SEM; for day 8 latency to find the platform: n = 8; for overall swim speed during the 8 days of training: no difference; for distance to find the platform, representative rat / latency to find the platform, representative rat: single rat, day 8 trial
Source text: (§3) The protocols utilized in this investigation minimized pain and discomfort, were approved by the Washington State University Institutional Animal Care and Use Committee, and conformed to the guidelines for the care and use of laboratory animals as required by the National Institutes of Health Guide for the Care and Use of Laboratory Animals (NIH Publication No. 80-23). Male Sprague-Dawley rats (300–350 g, breeding stock derived from Taconic, Germantown, NY) were adapted to a 12-hour light/dark cycle initiated at 0600 hour in the American Association for the Accreditation of Laboratory Animal Care approved vivarium at a temperature of 21 ± 1°C. The animals were housed in pairs and provided with water and food (Harlan Teklad F6 Rodent Diet, Madison, WI) ad libitum except the night prior to surgery when food was withheld. Each animal was prepared with bilateral guide cannulas targeting either the dorsal hippocampi (flat skull coordinates relative to bregma: post: −4.0 mm, lat: ±2.5 mm from midline) or lateral ventricles (post: 1.0 mm, lat: ±1.5 mm from midline) under ketamine-xylazine anesthesia (100 and 2 mg/kg, resp., intramuscularly). The guide was constructed from PE-60 tubing (Clay Adams, Parsippany, NJ) with a heat bulge that rested on top of the cranium thus serving as a stop to further penetration. The total length of the guide was 2.5 cm with a distance from the beveled tip to the heat bulge of 2.0 and 2.5 mm for the dorsal hippocampus and icv, respectively. All infusions were made using a 30-gauge stainless-steel tubing injector with a beveled end that protruded 2.0 mm beyond the tip of the PE guide cannula. The injector was attached to a 10 μL Hamilton syringe by PE-20 tubing. The animals were hand gentled for 5 minutes per day during the 7 days of recovery from surgery. Those animals prepared with dorsal hippocampus guide cannulas were randomly assigned to one of two groups (8 rats each) that received either FN-439 or artificial cerebrospinal fluid vehicle (aCSF; in mM: 124 NaCl, 3 KCl, 1.24 KH2PO2, 1.3 MgSO4, 2.0 CaCl2, 26 NaHCO3, and 10 D-glucose). Those animals prepared with icv cannulas were similarly assigned.
Our laboratory previously used a 7.2 mM stock in aCSF icv infused over 5 minutes to a total volume of 10 μL (35 μg) 10 minutes prior to behavioral testing, and again 3 hours post-testing (cumulative dose = 70 μg). Presently, we utilized a 14.4 mM stock in aCSF infused over 1 minute to a total volume of 5 μL, that is, 2.5 μL for each side (17.5 μg in 2.5 μL aCSF/min) 20 minutes prior to behavioral testing (5 trials), and again 10 minutes after testing (cumulative dose = 70 μg) each day. The protocol used for icv infusion was 35 μg in 5 μL aCSF infused over 1 minute, 20 minutes prior to testing and again 10 minutes following testing (cumulative dose = 70 μg). Behavioral testing in the Morris water maze task was conducted by an experimenter blind to the treatment of each animal.
The Morris water maze task was used to test spatial memory acquisition. This protocol has been described in detail. Briefly, each trial entailed placing the animal into the water facing the wall of the pool (1.6 m in diameter painted black, filled to a depth of 30 cm) at one of four locations (North (N), South (S), East (E), and West (W)) and tracking its swimming path and duration (Chromatrac; San Diego Instruments, San Diego, Calif) until the submerged platform was found (12 cm in diameter painted black, 2 cm below the surface). Swim speed was determined from these values. If the animal located the platform within 120 seconds it was permitted 30 seconds on the platform before the next trial commenced. […] The animal's entry point was randomized on each trial, and the location of the platform was randomly assigned to one of the four quadrants and remained fixed for each animal throughout training (5 trials/day for 8 days). At the conclusion of the 5 acquisition trials on day 8 each animal was administered one probe trial. […]

[6] = Morris water maze task, probe trial; format: in vivo, male Sprague-Dawley rats; conditions: for time spent in the target quadrant: 70 μg/day cumulative, 120-s probe trial on day 8, mean ± SEM
Source text: as §3, with “Those animals prepared with dorsal hippocampus guide cannulas were randomly assigned to one of two groups (8 rats each) that received either FN-439 or artificial cerebrospinal fluid vehicle (aCSF; in mM: 124 NaCl, 3 KCl, 1.24 KH2PO2, 1.3 MgSO4, 2.0 CaCl2, 26 NaHCO3, and 10 D-glucose). Those animals prepared with icv cannulas were similarly assigned.” left out
The Morris water maze task was used to test spatial memory acquisition. […] Swim speed was determined from these values. […]

[7] = target: HG gelatinase; conditions: ref Odake et al. [37], read-out: IC50 against gelatinase; cited from earlier work
Source text: (§4) There are at least two possible explanations for these differences. First, Odake and colleagues used HSF stromelysin and HG gelatinase as substrates, while we used MMP-3 (stromelyisin-1) and MMP-9 (gelatinase B). Secon ...

[8] = test system: HSF stromelysin; conditions: ref Odake et al. [37], read-out: IC50 against stromelysin; cited from earlier work
Source text: as §4

[9] = test system: MMP-9; conditions: 7.2 mM stock in aCSF infused over 30 min, 100 μL (350 μg); vs aCSF control; ref Reeves et al. [19]; cited from earlier work
[10] = icv, 7.2 mM stock, 10 μL (35 μg) twice, cumulative 70 μg; ref [27]; cited from earlier work
Source text: (§5) The potential contribution of ECM remodeling to learning and memory has only recently been addressed. Our laboratory has focused on hippocampal mediated spatial memory and measured elevations in hippocampal MMP-3 and MMP-9 during acquisition of the Morris water maze task.

[11] = test system: late-phase of long-term potentiation (LTP); conditions: ref [27]; cited from earlier work
Source text: as §5

[12] = test system: LTP in the sprouting crossed temporodentate pathway; conditions: icv 350 μg, following unilateral lesions of the entorhinal cortex; ref Reeves et al. [19]; cited from earlier work
[13] = catalytic domain, substrate Mca-Pro-Leu-Gly-Leu-Dpa-Ala-Arg-NH2, 30 min preincubation at 37°C, fluorescence at 10-min intervals for one hour, mean ± SEM

T1 sequence (P08254 100-272 limits assumed): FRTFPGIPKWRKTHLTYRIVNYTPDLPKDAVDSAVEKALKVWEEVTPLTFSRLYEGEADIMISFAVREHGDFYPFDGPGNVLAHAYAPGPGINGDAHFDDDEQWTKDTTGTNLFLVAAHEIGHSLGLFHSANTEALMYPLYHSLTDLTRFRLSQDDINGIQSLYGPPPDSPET

CC(C)C[C@@H](NC(=O)[C@@H]1CCCN1C(=O)CNC(=O)c1ccc(N)cc1)C(=O)N[C@H](C)C(=O)NO [FN-439, 4-Abz-Gly-Pro-D-Leu-D-Ala-OH]
IC50 [1, 13]: 16.2 ± 7.8 µM
effect upon the MMP-3 catalytic domain (in words) ([1]; in vitro fluorescence assay): maximal effect
IC50 [2, 13]: 210 ± 37.8 µM
specificity for the MMP-9 catalytic domain (in words) ([2]; in vitro fluorescence assay): good specificity
inhibition of MMP-2 and MMP-9 in the hippocampus ([3]; dentate gyrus): significantly inhibited
basal activity of MMP-9 (green fluorescence) [3]: significantly reduced
cellular toxicity (blue fluorescence of cell nuclei) [4]: no cellular toxicity
acquisition of the Morris water maze task (in words) ([5]; bilateral into dorsal hippocampi or icv, 8 days, vs aCSF): significantly interfered with the acquisition of the task
positive thigmotaxis (ratio of time near the wall to total trial time), day 8 ([5]; dorsal hippocampus, aCSF hippocampus 0.17 ± 0.06): 0.37 ± 0.09
day 8 latency to find the platform ([5]; dorsal hippocampus, bilateral, aCSF hippocampus 13.4 ± 1.0 s): 37.9 ± 8.4 s
day 8 distance swum to find the platform ([5]; dorsal hippocampus, bilateral, aCSF hippocampus 4.2 ± 0.5 m): 12.1 ± 2.9 m
overall swim speed during the 8 days of training ([5]; dorsal hippocampus, aCSF hippocampus 0.30 ± 0.02 m/s): 0.32 ± 0.02 m/s
latencies to find the platform on days 5–8 (in words) ([5]; hippocampus or icv, vs aCSF, P < .05): significantly longer latencies
positive thigmotaxis (ratio of time near the wall to total trial time), day 8 ([5]; icv, aCSF icv 0.14 ± 0.05): 0.45 ± 0.11
day 8 latency to find the platform ([5]; icv, aCSF icv 14.3 ± 1.9 s): 44.4 ± 10.7 s
day 8 distance swum to find the platform ([5]; icv, aCSF icv 5.8 ± 0.7 m): 12.9 ± 2.7 m
overall swim speed during the 8 days of training ([5]; icv, aCSF icv 0.31 ± 0.02 m/s): 0.31 ± 0.02 m/s
dorsal hippocampus infusion compared with icv delivery (in words) ([5]; interference with acquisition of the Morris water maze task): equivalently effective
distance to find the platform, representative rat ([5]; dorsal hippocampus, aCSF rat 5.9 m): 17.9 m
latency to find the platform, representative rat ([5]; dorsal hippocampus, aCSF rat 15 s): 38.3 s
distance to find the platform, representative rat ([5]; icv, aCSF rat 4.7 m): 14.8 m
latency to find the platform, representative rat ([5]; icv, aCSF rat 13.3 s): 43.9 s
time spent in the target quadrant ([6]; dorsal hippocampus, aCSF hippocampus 40.7 ± 2.2 s): 34.3 ± 2.7 s
number of entries into the target quadrant ([6]; hippocampus or icv, probe trial day 8, groups compared incl. aCSF (F3,28 = 0.98, P > .10)): no differences
time spent in the target quadrant ([6]; icv, aCSF icv 47.1 ± 4.0 s): 28.4 ± 0.8 s
IC50 [7]: 30 µM
IC50 [8]: 150 µM
inhibition of MMP-9 activity [9]: 83.6%
acquisition of the Morris water maze task [10]: disrupted the acquisition of the Morris water maze task
late-phase of long-term potentiation (LTP) [11]: interfered with the late-phase of long-term potentiation
LTP in the sprouting pathway [12]: lack the ability to demonstrate LTP in the sprouting pathway
